Reference: ChEMBL document CHEMBL5608184, “Discovery and mechanistic insights into thieno[3,2-d]pyrimidine and heterocyclic fused pyrimidines inhibitors targeting tubulin for cancer therapy” (Eur J Med Chem, 2024)

Experiments:
SK-OV-3 [1] = assay: Induction of apoptosis in human SK-OV-3 cells assessed as early apoptotic cells at 5 nM incubated for 48 hrs by Annexin V-APC-A/7-AAD-A staining based flow cytometry (reference value: 1.12 %); assay type: functional
SK-OV-3 [2] = assay: Induction of apoptosis in human SK-OV-3 cells assessed as late apoptotic cells at 5 nM incubated for 48 hrs by Annexin V-APC-A/7-AAD-A staining based flow cytometry (reference value: 1.22 %); assay type: functional

COc1ccc2c(c1)NC(=O)CN2c1nc(Cl)nc2ccsc12
Activity (SK-OV-3 [1]): 31.24% | Activity (SK-OV-3 [2]): 4.63%
